Patent EP4424327A1, “METHOD OR AGENT WITH HDAC REGULATOR, FOR TREATMENT OF DIABETES AND COMPLICATIONS” (Biozipcode, Inc., priority 2021, dated 2023)

How the values were obtained:
STZ-DM mice [1] = assay: Drug treatment of STZ-DM mice (Example 3): weekly blood glucose levels; assay type: in vivo, C57BL/6 J mice
Description: An overview of the procedure is illustrated in FIG. 13. Streptozotocin (150 mg/kg) was tail vein-administered to C57BL/6 J mice (wild type, CLEA Japan, Inc., Osaka) (nonDM) to develop diabetes mellitus. For the STZ-DM mouse, the blood glucose level was normalized by insulin pellet administration, and the blank pellet was administered to a control group. In both the treatment group and the control group, 2.5 mg/kg of givinostat (Cayman chemical, USA) was administered to the tail vein or orally. The insulin pellet or the blank pellet was administered up to 3 days before the start of the givinostat treatment, and the administration of givinostat was started on the day on which it was confirmed that the blood glucose level of the treatment group fell within the normal range on day 0. Note that givinostat was administered once every three days until week 8. In addition, a non-diabetic group (nonDM) in which only a buffer was administered without administering STZ simultaneously with the treatment group, and a non-treated diabetic group (STZ-DM) in which neither blood glucose control nor treatment with givinostat was performed were also observed simultaneously.
(§1) Blood glucose levels were measured weekly for 12 weeks. In addition, an intraperitoneal glucose tolerance test (IPGTT) was performed on some mice 12 weeks after the start of treatment. After 16 hours of fasting, blood glucose level measurement and blood collection were performed at 0 minutes, 100 µl of a 1.5 g/kg glucose solution was intraperitoneally administered, and blood glucose level measurement and blood collection were performed at 30 minutes, 60 minutes, and 120 minutes, respectively. Serum was collected from the collected blood, and the serum insulin concentration was measured using an ultra-sensitive mouse insulin measurement kit (Morinaga Institute of Biological Science, Inc., Japan). FIG. 15 illustrates the transition of blood glucose, and FIG. 16 illustrates the transition of insulin concentration.

STZ-DM mice [2] = assay: TNF-α immunostaining (DAB staining) of bone marrow, thymus and pancreatic islets (Example 3); assay type: in vivo, C57BL/6 J mice
Description: In addition, mice in each experimental group were subjected to perfusion fixation, and then dissected to collect the femur, thymus, and pancreas. In the femur, bone tissue was demineralized using a neutral demineralizing solution (10% EDTA solution) to prepare a paraffin block. A paraffin section having a thickness of 3 µm was prepared from the paraffin block using a microtome, and was stained with DAB. As pretreatment for DAB staining, the paraffin section was deparaffinized with xylene and hydrophilized with ethanol, and the antigen was activated using HistoVT one (Nacalai Tesque). Thereafter, DAB staining was performed using TNF-α (abcam).

STZ-DM mice [3] = assay: Effect of thymectomy on treatment of STZ-DM mice (Example 8); assay type: in vivo, C57BL/6 J mice
Description: Streptozotocin (150 mg/kg) was tail vein-administered to C57BL/6 J mice (wild type, CLEA Japan, Inc., Osaka) to develop diabetes mellitus. After one month of free feeding, an insulin pellet was subcutaneously administered to these STZ-DM mice to normalize their blood glucose levels. The mice were divided into two groups, for one group of mice, the thymus was removed from the suprasternal fossa (thymectomy group), and for the other group of mice, an incision was made in the suprasternal fossa and closed immediately (control group). Givinostat (Cayman chemical, USA) was orally administered at 2.5 mg/kg to both the thymectomy group and the control group. Givinostat was administered once every three days.
Blood glucose levels of mice in both groups were measured weekly (FIG. 24). After the end of 8 weeks of treatment, perfusion fixation was performed on both groups of mice to confirm the presence or absence of thymus (FIG. 25).

STZ-DM mice [4] = assay: Insulin and glucagon DAB staining of frozen pancreas sections (Example 3); assay type: in vivo, C57BL/6 J mice; details: givinostat administered simultaneously with blood glucose control (insulin pellet)
Description: 12 weeks after the start of treatment, some mice were subjected to perfusion fixation with a 4% PFA solution in 0.1 M PB and harvested pancreatic tissue was immersed overnight in a 15% sucrose solution in 0.1 M PB, and then, 8 um frozen sections were prepared with a cryostat. The frozen sections were washed 3 times with PBS (-) for 10 minutes, reacted in a 0.3% hydrogen peroxide solution (0.3% H2O2 in PBS (-)) for 30 minutes at room temperature to inactivate endogenous peroxidase in the sections, and then washed 3 times for 5 minutes with PBS (-). Thereafter, in order to prevent non-specific reactions, the sections were reacted with 5% normal goat serum in PBS (-) supplemented with 0.3% Triton X and blocked at room temperature for 1 hour. After blocking, the sections were reacted with a primary antibody (anti-insulin antibody: CST Inc. or anti-glucagon antibody: CST Inc.) at 4°C overnight. Thereafter, the sections was washed 3 times with PBS (-) for 5 minutes, reacted in ImmPRESS reagent (Vector laboratory) at room temperature for 30 minutes, and further washed. […] The prepared sections were observed under a microscope, about 5 to 8 pancreatic islets were randomly selected, and the percentage of insulin or glucagon positive cells relative to the size of the pancreatic islets was calculated using Image J software.

STZ-DM mice [5] = assay: Weight of the collected thymus (Example 3); assay type: in vivo, C57BL/6 J mice; details: givinostat simultaneously with blood glucose control, both oral and intravenous; non-diabetic 37 mg, diabetic 13 mg
db/db mice [6] = assay: Treatment of db/db mice with HDAC regulator and dapagliflozin (Example 6); assay type: in vivo; details: givinostat 2.5 mg/kg + dapagliflozin 1.0 mg/kg orally daily for 8 weeks, then 4 weeks off treatment
Description: Db/db mice were observed from week 6, and the time point at which the blood glucose level exceeded 300 mg/dl was defined as the onset of diabetes mellitus. In db/db mice with leptin receptor deficiency, 1.0 mg/kg of dapagliflozin, an SGLT inhibitor, and 2.5 mg/kg of givinostat, an HDAC regulator, were orally administered daily for 8 weeks, after which the treatment was discontinued for 4 weeks and terminated.

NOD mice = assay: Treatment of diabetes mellitus in NOD mice with HDAC regulator and blood glucose control (Example 4); assay type: in vivo; details: givinostat 2.5 mg/kg orally daily + insulin glargine s.c. daily (tapered from 10 IU), 8-12 weeks
Description: (§2) The treatment was started for NOD mice one week after confirmation of the onset of hyperglycemia. […] 2 hours after administration of insulin glargine, 2.5 mg/kg of givinostat was orally administered daily to a mouse whose blood glucose level was measured and blood glucose lowering was confirmed. When the blood glucose level before administration of insulin glargine was lower than 200 mg/dl at longer than 8 weeks after the start of treatment, the administration of insulin glargine and givinostat on that day was discontinued. When the blood glucose level on the next day was also below 200 mg/dl, insulin glargine and givinostat were stopped, and then, the blood glucose level was measured weekly until week 4 to determine the diabetic state. […] When hypoglycemia appeared, blood glucose levels were measured 1 hour after intraperitoneal (300 µL) administration of 25% glucose solution, and this operation was repeated when hypoglycemia was still persistent. […] When hypoglycemia was confirmed, the subsequent insulin was adjusted to 1/2 of the previous dose as necessary.

STZ-DM mice [7] = assay: Intraperitoneal glucose tolerance test (IPGTT) 12 weeks after start of treatment (Example 3); assay type: in vivo, C57BL/6 J mice; details: insulin pellet + givinostat compared with blank pellet + givinostat, 1.5 g/kg glucose i.p.
Description: as §1

db/db mice [8] = assay: Treatment of db/db mice with HDAC regulator and insulin glargine (Example 5); assay type: in vivo; details: givinostat 2.5 mg/kg orally daily + insulin glargine s.c. daily (tapered from 10 IU), 8-12 weeks
Description: as §2, with “Db/db mice were observed from week 6, and the time point at which the blood glucose level exceeded 300 mg/dl” for “The treatment”, “defined as” for “started for NOD mice one week after confirmation of”, “diabetes mellitus.” for “hyperglycemia.”

[9] = givinostat simultaneously with blood glucose control (insulin pellet)

In the case of `CCN(CC)Cc1ccc2cc(COC(=O)Nc3ccc(C(=O)NO)cc3)ccc2c1` [givinostat], the blood glucose level (STZ-DM mice [1]; givinostat 2.5 mg/kg for 8 weeks without insulin pellet (blank pellet)) is reported as “the blood glucose level did not decrease even when givinostat was administered for 8 weeks”, the blood glucose levels (STZ-DM mice [1]; insulin pellet + givinostat 2.5 mg/kg (oral or intravenous, once every three days for 8 weeks), start of treatment) is reported as “immediately decreased” and the blood glucose level (STZ-DM mice [1]; insulin pellet + givinostat (both orally and intravenously), after discontinuing givinostat after week 9, up to week 12) is reported as “the reduction in blood glucose level continued even after discontinuing givinostat after week 9”. For the same compound, the “TNF-α positive cells in pancreatic islets” value (STZ-DM mice [2]; blank pellet + givinostat treatment (oral) and (intravenous)) was “a large amount of TNF-α positive cells migrated to the center of the pancreatic islets”, the “TNF-α positive cells in bone marrow” value (STZ-DM mice [2]; [9]) was “TNF-α positive cells decreased to the same extent as the non-diabetic group” and the “TNF-α positive cells in thymus” value (STZ-DM mice [2]; [9]) was “TNF-α positive cells decreased to the same extent as the non-diabetic group”. For the same compound, the “TNF-α positive cells in pancreatic islets” value (STZ-DM mice [2]; insulin pellet + givinostat treatment (oral) and (intravenous)) was “almost no TNF-α positive cells were observed”, the blood glucose levels (STZ-DM mice [3]; control group without thymectomy, insulin pellet + givinostat 2.5 mg/kg orally once every three days, 8 weeks) was “no increase in blood glucose levels was observed” and the “thymus atrophied by diabetes mellitus” value (STZ-DM mice [3]; control group without thymectomy, insulin pellet + givinostat, week 8) was “recovered to a normal level”. The “blood glucose level at the end of treatment” value (STZ-DM mice [3]; thymectomy group, insulin pellet + givinostat 2.5 mg/kg orally once every three days, 8 weeks) was “about 400 mg/dL”, the thymus (STZ-DM mice [3]; thymectomy group, insulin pellet + givinostat, week 8) was “the thymus did not recover even when the treatment was performed” and the “area of glucagon positive cells, of the entire pancreatic islets” value (STZ-DM mice [4]; nonDM about 10%, STZ-DM 75%) was “about 40%”. For the same compound, the “area of insulin positive cells, relative to nonDM” value (STZ-DM mice [4]; pancreatic islets, 12 weeks) was “about 1/2”, the “thymus weight, relative to normal” value (STZ-DM mice [5]) was “about 2/3” and the diabetes mellitus outcome (db/db mice [6]) was “cured”. For the same compound, the diabetes mellitus outcome (NOD mice) was “cured”, the “blood glucose levels after IPGTT” value (STZ-DM mice [7]) was “early normalization of blood glucose levels” and the “insulin in blood after IPGTT” value (STZ-DM mice [7]) was “high blood insulin elevation”. The diabetes mellitus outcome (db/db mice [8]) was “cured”.
